Laboratory results: US20090117215A1, “EXTRACT OF CERATONIA SILIQUA LEAVES AND PODS CONTAINING POLYPHENOLS WITH ANTIOXIDANT AND ANTITUMOR ACTIVITIES” (priority 2001, published 2009)

Columns and labels:
[1] = tested on: T1 cells (liver tumour cells); test: Cell proliferation assay (MTS) in T1 hepatic tumour cells; format: cell-based, mice; conditions: for concentration at which proliferation is already inhibited / concentration reaching the peak activity (inhibition of proliferation): hepatic tumour cell cultures (T1), 24 and 48 hours exposure; for inhibition of cell proliferation in liver tumour cells: FIG. 1, after 24 and 48 hours exposure
Method: (§1) Tumour cell cultures (T1) used in the tests derive from transgenic mice hepatocellular carcinoma, in which an over-expression of the c-myc and TGFα had been induced. Cells were kept in L-glutamine-free DMEM medium, HAM F 12 containing 1 mg/ml galactose, 18 mM HEPES, 5 mM Na piruvate, 30 mg/M1 proline, ITS 100×, 2 mM glutamine, 0.1% gentamicin (Sigma-Aldrich, Italy) and added with 10% FBS. Cell lines were cultured in polystyrene plates (Dasit, Italy).
T1 cells were plated in 96 wells-plates at a concentration of 10,000 cells/well and left to sediment for 4-5 hours. Cells were then incubated in EGCG or ECG at a concentration of 20, 40, 60, 80, 160 μg/ml for 24 and 48 hours. The substances were diluted in the culture medium starting from stock solutions (aqueous solution for EGCG and aqueous-ethanol solution (1:1) for ECG). Control cells were treated with solutions containing ethanol in amounts corresponding to that of the samples containing catechins. After 24 or 48 hours, the proliferation was calorimetrically measured using a specific kit (Cell Titer Aqueous Cell Proliferation Assay, Promega) which makes use of a calorimetric transformation reaction of colourless MTS (tetrazolium salt) into coloured formazan by living, proliferating cells. Formazan quantitation was carried out by spectrophotometric analysis at λ=490 nm.

caspase 3 = test: Evaluation of caspase 3 activation in T1 cell lysates; format: cell-based, mice; conditions: 80 μg/ml, compared with untreated cells; FIG. 2
Method: as §1
Caspase 3 protease activity in cells lysates was determined using a Promega kit. T1 Cells were treated with EGCG and ECG (80 μg/ml) alone or in combination with a caspase inhibitor (Z-VAD-FMK) for 24 or 48 hours. Afterwards a calorimetric substrate (DEVD-pNA) able to evidence the protease activity was added. After incubation for 4 hours at 37° C., the protease activity was determined by spectrophotometric analysis at λ=405 nm.

Row | SMILES | concentration at which proliferation is already inhibited [1] | concentration reaching the peak activity (inhibition of proliferation) [1] | caspase 3 protease activity (caspase 3) | inhibition of cell proliferation in liver tumour cells [1]
1 | O=C(O[C@@H]1Cc2c(O)cc(O)cc2O[C@@H]1c1ccc(O)c(O)c1)c1cc(O)c(O)c(O)c1 [ECG, (−)-epicatechin-3-gallate] | 40 µg/mL | 80 µg/mL | activation | 
2 | Oc1cc(O)c2c(c1)O[C@H](c1cc(O)c(O)c(O)c1)[C@H](O)C2 [EGC, epigallocatechin] |  |  |  | dose-dependent
3 | O=C(O[C@@H]1Cc2c(O)cc(O)cc2O[C@@H]1c1cc(O)c(O)c(O)c1)c1cc(O)c(O)c(O)c1 [EGCG, (−)-epigallocatechin-3-gallate] | 40 µg/mL | 80 µg/mL | activation | dose-dependent
